According to US7196110B2, “N-substituted tricyclic 3-aminopyrazoles as inhibitors for the treatment of cell proliferative disorders” (Janssen Phamaceutica N.V., priority 2002, dated 2007):
Read-outs that look alike come from different tables or passages of the source.

Key:
[1] = system: human umbilical vein endothelial cells (HUVEC); assay: Anti-cell proliferation in normal cells in the absence of PDGF stimulation (BrdU incorporation); format: cell-based; conditions: read-out: IC50 on cell proliferation, HUVEC (LSGS)
Method: The effect of compounds of the invention on cell proliferation in normal human primary cell, in particular, human umbilical vein endothelial cells (HUVEC), in the absence of PDGF stimulation was tested based on incorporation of BrdU into DNA of cells.
The following materials were purchased from their respective sources: HUVEC cells from Cascade Biologics, Cat No: C-015-10C; Medium 200 from Cascade Biologics, Cat No: M-200-500; Low serum growth supplements (LSGS) from Cascade Biologics, Cat No: S-003-10; F12-K medium from Gibco/BRL, Cat No: 21127-022; BrdU kit from Roche, Cat No: 1 647 229; and Trypsin/EDTA solution from Cascade Biologics, Cat No: R-001-100.
For propigation, HUVEC cells were grown in M-200 medium supplemented with LSGS. For studies, cells were detached with Trypsin/EDTA solution and washed three times with 10 mL of F12K (LS, low serum) medium and then centrifuged at 400×G for 5 minutes. F-12K (LS) medium is F-12K medium containing 0.2% heat-treated fetal bovine serum.
Cell concentration was adjusted to about 5×10^4 cells/mL in F-12K (LS) medium, and 200 μl (approx. 1×10^4 cells) were added to each well of a 96-well plate. Cells were then incubated for 16 to 20 hours at 37° C. under 95% air/5% CO2 to allow the cells to attach and become quiescent.
Cell proliferation was stimulated by adding 50 μL of a 1:10 dilution of LSGS in F12K (LS). Maximum-stimulated control wells were prepared by adding 50 μl of a 1:10 dilution of LSGS. Zero control wells contained 50 SL of F-12K (LS) medium only. Test compounds in 100% DMSO were added at a volume of 2.5 μl to achieve the desired final drug concentration. Replicates of eight wells per condition were tested. Cells were incubated at 37° C. overnight. On the next day 25 μL of BrdU (1:100 dilution of stock in F-12K (LS) medium) was added to each well.
Cells were incubated for an additional 20–24 hours. The medium was removed and the cells were fixed by adding 200 μL of FixDent solution (included in the BrdU kit) to each well and then incubated at room temperature for an additional 30 minutes. FixDent was removed by flicking and blotting the plates, and 100 μL of anti-BrdU-POD (included in the BrdU kit) diluted at a 1:100 dilution in antibody dilution solution (included in the BrdU kit) was added to each well. The diluted anti-BrdU-POD solution was prepared shortly before use. The plates were incubated at room temperature for 90 minutes.
The unbound antibody was removed by washing three times with Wash Solution (200 uL per wash). Wash Solution was prepared by making a 1:10 dilution of Wash Buffer Stock (included in the BrdU kit) with distilled water. Substrate solution (included in the BrdU kit) (100 uL) was added to each well and incubated for an additional 30–40 minutes. Plates were then read at 405 nm on a 96-well plate reader.
(§1) In order to test the potency of inhibition of the present compound, IC50 of an individual compound on the inhibition of PDGF-BB independent HUVEC proliferation was measured using the above procedure. As used herein, said IC50 refers to the concentration of the test compound at which the amount of HUVEC proliferation is reduced by one-half as compared to the maximum growth control wells without the compound.

[2] = system: human coronary artery smooth muscle cells (HCASMC), PDGF-BB induced; assay: Anti-cell proliferation in normal cells in the presence of PDGF stimulation (14C-thymidine incorporation); format: cell-based; conditions: read-out: IC50 on cell proliferation, HCASMC (PDGF-BB)
Method: The effect of compounds of the invention on cell proliferation in normal human primary cells, in particular, cryopreserved human coronary artery smooth muscle cells (HCASMC), in the presence of PDGF stimulation was tested based on incorporation of ^14C-thymidine into DNA of cells.
The following materials were purchased from their respective sources: Recombinant human PDGF beta homodimer, rhPDGF-BB (herein after referred as “PDGF-BB”) purchased from R&D System (Minneapolis, Minn., Cat. No 220-BB); Cryopreserved human coronary artery smooth muscle cells (HCASMC), tissue culture medium for HCASMC, and smooth muscle growth supplement (SMGS) purchased from Cascade Biologics (Portland, Oreg., HCASMC Cat. No: C-017-5C; Medium 231 Cat. No: M-231-500; and SMGS Cat. No: S-007-25); 96-well CytoStar tissue culture treated scintillating microplates purchased from Amersham (Piscataway, N.J., Cat. No: RPNQ0160); Methyl ^14C-thymidine at 56 mCi/mmol (250 μCi/2.5 mL) purchased from NEN (Cat. No.: NEC568); DMSO from Sigma (St. Louis, Mo., Cat. No: D-5879); Sterile reagent reservoirs from Costar (VWR International, Inc., West Chester, Pa., Cat. No: 4870); Dulbecco's PBS from Gibco (Cat. No: 14190-136); Backing tape white plate cover for bottom of CytoStar plate from Packard (Cat. No: 6005199)
HCASMC were seeded at approx. 4000 cells/well in a volume of 100 μl of complete Medium 231 with SMGS. Cells were grown for 48 hrs until they reach 80% confluence. They were then quiesced in SMGS-free Medium 231 for 24 hrs. Cell media were replenished with SMGS-free Medium 231 containing PDGF-BB at 50 ng/mL in a total volume of 100 μl/well; and 1 μl of test compounds in serially diluted concentrations in 100% DMSO was added to each well. For the maximum growth control wells, only 1 μl of 100% DMSO was added; for minimum growth (blank) wells, 1 μl of 10 mM cycloheximide was added to each well. After 24 hours incubation, 20 μl of ^14C-thymidine mix was added to each well and the ^14C-thymidine mix was made according the following regimen:
Cells were incubated for an additional 24 hrs in media containing test compounds, PDGF-BB and ^14C-thymidine. Then, the reaction mixture was discarded and the plate was washed 3 times each with 200 μl PBS. Subsequently, each well on the plate was filled with 200 μl of PBS. The top of the plate was sealed with transparent plate sealer and white plate backing sealers were applied to the bottom of plates. The retained ^14C inside each well was measured using a Packard TopCount.
as §1, with “The amount of ^14C retained in a well correlates to the proliferation of cells inside the well. […] In” for “In”, “induced HCASMC” for “independent HUVEC”, “PDGF-BB induced HCASMC” for “HUVEC”

[3] = PDGF-BB induced HCASMC proliferation

SMILES: COC(=O)c1cccc(Nc2[nH]nc3c2Cc2cc(OC)c(OC)cc2-3)c1 [Compound 11, 3-(6,7-Dimethoxy-2,4-dihydro-indeno[1,2-c]pyrazol-3-ylamino)-benzoic acid methyl ester]
- IC50 ([1]; LSGS, PDGF-BB independent): 2 nM
- IC50 [2, 3]: 14 nM

SMILES: Cc1ccc2c(c1)-c1n[nH]c(Nc3ccccc3)c1C2 [Compound 22, (7-Methyl-2,4-dihydro-indeno[1,2-c]pyrazol-3-yl)-phenyl-amine]
- IC50 ([1]; LSGS, PDGF-BB independent): 2150 nM
- IC50 [2, 3]: 278 nM

SMILES: COc1ccc2c(c1)-c1n[nH]c(Nc3ccccc3)c1C2 [Compound 39, (7-Methoxy-2,4-dihydro-indeno[1,2-c]pyrazol-3-yl)-phenyl-amine]
- IC50 [2, 3]: 9 nM

SMILES: COC(=O)c1cccc(Nc2[nH]nc3c2Cc2cc(OCCCN4CCCC4)c(OC)cc2-3)c1 [Compound 157, 3-[7-Methoxy-6-(3-pyrrolidin-1-yl-propoxy)-2,4-dihydro-indeno[1,2-c]pyrazol-3-ylamino]-benzoic acid methyl ester]
- IC50 ([1]; LSGS, PDGF-BB independent): 218 nM
- IC50 [2, 3]: 8 nM

SMILES: COc1cc2c(cc1OC)-c1n[nH]c(Nc3cccc(F)c3)c1C2 [Compound 14, (3-Fluoro-phenyl)-(6,7-dimethoxy-2,4-dihydro-indeno[1,2-c]pyrazol-3-yl)-amine]
- IC50 [1]: 4870 nM
- IC50 [2]: 3 nM

SMILES: COc1cc2c(cc1OC)-c1n[nH]c(Nc3ccccc3F)c1C2 [Compound 12, (6,7-Dimethoxy-2,4-dihydro-indeno[1,2-c]pyrazol-3-yl)-(2-fluoro-phenyl)-amine]
- IC50 ([1]; LSGS, PDGF-BB independent): 31 nM
- IC50 [2, 3]: 106 nM

SMILES: CN1CCN(c2ccc3c(c2)Cc2c-3n[nH]c2Nc2cccc(Br)c2)CC1 [Compound 122, (3-Bromo-phenyl)-[6-(4-methyl-piperazin-1-yl)-2,4-dihydro-indeno[1,2-c]pyrazol-3-yl]-amine]
- IC50 ([1]; LSGS, PDGF-BB independent): 223 nM
- IC50 [2, 3]: 125 nM

SMILES: COc1cc2c(cc1OC)-c1n[nH]c(Nc3cccnc3)c1C2 [Compound 30, (6,7-Dimethoxy-2,4-dihydro-indeno[1,2-c]pyrazol-3-yl)-pyridin-3-yl-amine]
- IC50 ([1]; LSGS, PDGF-BB independent): > 1000 nM
- IC50 [2, 3]: 2 nM

SMILES: COc1cc2c(cc1OC)-c1n[nH]c(NCc3cc(Cl)ccc3Cl)c1C2 [Compound 330, (2,5-Dichloro-benzyl)-(6,7-dimethoxy-2,4-dihydro-indeno[1,2-c]pyrazol-3-yl)-amine]
- IC50 ([1]; LSGS, PDGF-BB independent): 49 nM

SMILES: COc1cccc(Nc2[nH]nc3c2Cc2cc4c(cc2-3)OCO4)c1 [Compound 97, (2,9-Dihydro-5,7-dioxa-2,3-diaza-cyclopenta[a]-s-indacen-1-yl)-(3-methoxy-phenyl)-amine]
- IC50 ([1]; LSGS, PDGF-BB independent): 1910 nM
- IC50 [2, 3]: 19 nM

SMILES: COc1cc2c(cc1OC)-c1n[nH]c(NCc3ccccc3)c1C2 [Compound 63, Benzyl-(6,7-dimethoxy-2,4-dihydro-indeno[1,2-c]pyrazol-3-yl)-amine]
- IC50 ([1]; LSGS, PDGF-BB independent): 2460 nM
- IC50 [2, 3]: 14 nM
